Measurements taken from patent US20210047291A1, “PESTICIDALLY ACTIVE HETEROCYCLIC DERIVATIVES WITH SULFUR CONTAINING SUBSTITUENTS” (SYNGENTA PARTICIPATIONS AG, priority 2018, published 2021).

Assays:
Assay type in all cases: in vivo
[1] = tested on: Euschistus heros (Neotropical Brown Stink Bug); assay: Example B3: Euschistus heros, soybean leaves, N2 nymphs; conditions: for percent effect (mortality or growth inhibition) at 200 ppm: Euschistus heros, 120 h, application rate of 200 ppm, N2 nymphs, 5 days after infestation, read-out: effect in at least one of the two categories (mortality or growth inhibition); for mortality at 50 ppm: Concentration 50 ppm, Euschistus heros (Example B3), read-out: Mortality (%)
Method: Soybean leaves on agar in 24-well microtiter plates were sprayed with aqueous test solutions prepared from 10,000 ppm DMSO stock solutions. After drying the leaves were infested with N2 nymphs. The samples were assessed for mortality and growth inhibition in comparison to untreated samples 5 days after infestation.

[2] = tested on: Myzus persicae (Green peach aphid); assay: Example B5: Myzus persicae feeding/contact activity, sunflower leaf discs; conditions: foliar; for mortality at 200 ppm: Myzus persicae, 144 h, application rate of 200 ppm, mixed ages, 6 days after infestation, read-out: mortality; for mortality at 12.5 ppm: Concentration 12.5 ppm, Myzus persicae (feeding/contact, Example B5), read-out: Mortality (%)
Method: Sunflower leaf discs were placed onto agar in a 24-well microtiter plate and sprayed with aqueous test solutions prepared from 10,000 ppm DMSO stock solutions. After drying, the leaf discs were infested with an aphid population of mixed ages. The samples were assessed for mortality 6 days after infestation.

[3] = tested on: Myzus persicae (Green peach aphid); assay: Example B6: Myzus persicae systemic activity, pea seedlings; conditions: for mortality at 24 ppm: Myzus persicae, 144 h, test rate of 24 ppm, mixed ages, 6 days after placing seedlings into test solutions, read-out: mortality; for mortality at 1.5 ppm: Concentration 1.5 ppm, Myzus persicae (systemic, Example B6), read-out: Mortality (%)
Method: Roots of pea seedlings infested with an aphid population of mixed ages were placed directly into aqueous test solutions prepared from 10,000 DMSO stock solutions. The samples were assessed for mortality 6 days after placing seedlings into test solutions.

Melodoigyne incognita = assay: Example B14: Melodoigyne incognita juvenile mobility, in vitro profiling in 96 well plate; conditions: 200 ppm; after 24 h; second stage juveniles; read-out: control (juvenile mobility)
Method: Test solutions are prepared from 10,000 ppm DMSO stock solutions with a TECAN robot to achieve 20 μL of 1000, 200, 100, 50, 25 and 12.5 ppm. For each concentration three replicates are produced. Per well, 80 μL nematode solution is added containing 100 to 150 freshly harvested second stage juveniles of Melodoigyne incognita. The plates are covered and stored at room temperature in the dark and incubated for 24 h. Mobility of the exposed juveniles in a treated well is measured using an imaging tool and compared to an average of 12 untreated replicates.

[4] = tested on: Diabrotica Balteata (Corn Root Worm); assay: Example B2: Diabrotica balteata, maize sprouts, L2 larvae; conditions: for percent effect (mortality or growth inhibition) at 200 ppm: Diabrotica balteata, 96 h, application rate of 200 ppm, L2 larvae, 4 days after infestation, read-out: effect in at least one of the two categories (mortality or growth inhibition)
Method: Maize sprouts placed onto an agar layer in 24-well microtiter plates were treated with aqueous test solutions prepared from 10,000 ppm DMSO stock solutions by spraying. After drying, the plates were infested with L2 larvae (6 to 10 per well). The samples were assessed for mortality and growth inhibition in comparison to untreated samples 4 days after infestation.

[5] = tested on: Plutella xylostella (Diamond Back Moth); assay: Example B7: Plutella xylostella, artificial diet, L2 larvae; conditions: 120 h, application rate of 200 ppm, L2 larvae, 5 days after infestation, read-out: effect in at least one of the two categories (mortality or growth inhibition)
Method: 24-well microtiter plates with artificial diet were treated with aqueous test solutions prepared from 10,000 ppm DMSO stock solutions by pipetting. After drying, the plates were infested with L2 larvae (10 to 15 per well). The samples were assessed for mortality and growth inhibition in comparison to untreated samples 5 days after infestation.

SMILES	percent effect (mortality or growth inhibition) at 200 ppm [1] [%]	mortality at 200 ppm [2] [%]	mortality at 24 ppm [3] [%]	pest or weed control at 200 ppm (Melodoigyne incognita) [%]	other results
CCS(=O)(=O)c1cc(NC(=O)C(C)(C)O)cnc1-c1nc2cc(C(F)(F)F)ncc2n1C [P8, N-[5-ethylsulfonyl-6-[3-methyl-6-(trifluoromethyl)imidazo[4,5-c]pyridin-2-yl]-3-pyridyl]-2-hydroxy-2-methyl-propanamide]	≥ 80	≥ 80	≥ 80	–	–
CCS(=O)(=O)c1cc(N2CCOCC2=O)cnc1-c1nc2cc(C(F)(F)F)ncc2n1C [P15, 4-[5-ethylsulfonyl-6-[3-methyl-6-(trifluoromethyl)imidazo[4,5-c]pyridin-2-yl]-3-pyridyl]morpholin-3-one]	≥ 80	≥ 80	≥ 80	≥ 80	–
CCS(=O)(=O)c1cc(N(C)C(C)=O)ccc1-c1nc2cc(C(F)(F)F)ncc2n1C [P16, N-[3-ethylsulfonyl-4-[3-methyl-6-(trifluoromethyl)imidazo[4,5-c]pyridin-2-yl]phenyl]-N-methyl-acetamide]	≥ 80	≥ 80	≥ 80	–	–
CCS(=O)(=O)c1cc(N2CCS(=O)(=O)CC2=O)cnc1-c1nc2cc(C(F)(F)F)ncc2n1C [P18, 4-[5-ethylsulfonyl-6-[3-methyl-6-(trifluoromethyl)imidazo[4,5-c]pyridin-2-yl]-3-pyridyl]-1,1-dioxo-1,4-thiazinan-3-one]	≥ 80	–	–	–	–
CCN(C(=O)CCl)c1cnc(-c2nc3cc(C(F)(F)F)ncc3n2C)c(S(=O)(=O)CC)c1 [P20, 2-chloro-N-ethyl-N-[5-ethylsulfonyl-6-[3-methyl-6-(trifluoromethyl)imidazo[4,5-c]pyridin-2-yl]-3-pyridyl]acetamide]	≥ 80	≥ 80	≥ 80	≥ 80	percent effect (mortality or growth inhibition) at 200 ppm [4]: ≥ 80%
CCC(=O)Nc1cnc(-c2nc3cc(C(F)(F)F)ncc3n2C)c(S(=O)(=O)CC)c1 [P25, N-[5-ethylsulfonyl-6-[3-methyl-6-(trifluoromethyl)imidazo[4,5-c]pyridin-2-yl]-3-pyridyl]propanamide]	≥ 80	≥ 80	≥ 80	≥ 80	percent effect (mortality or growth inhibition) at 200 ppm [4]: ≥ 80%; percent effect (mortality or growth inhibition) at 200 ppm [5]: ≥ 80%
CCS(=O)(=O)c1cc(N(C)C(=O)C(C)(C)C)cnc1-c1nc2cc(C(F)(F)F)ncc2n1C [P26, N-[5-ethylsulfonyl-6-[3-methyl-6-(trifluoromethyl)imidazo[4,5-c]pyridin-2-yl]-3-pyridyl]-N,2,2-trimethyl-propanamide]	≥ 80	≥ 80	≥ 80	≥ 80	percent effect (mortality or growth inhibition) at 200 ppm [5]: ≥ 80%
CCS(=O)(=O)c1cc(N(C)C(=O)CC(F)(F)F)cnc1-c1nc2cc(C(F)(F)F)ncc2n1C [P28, N-[5-ethylsulfonyl-6-[3-methyl-6-(trifluoromethyl)imidazo[4,5-c]pyridin-2-yl]-3-pyridyl]-3,3,3-trifluoro-N-methyl-propanamide]	≥ 80	≥ 80	≥ 80	–	percent effect (mortality or growth inhibition) at 200 ppm [4]: ≥ 80%
CCS(=O)(=O)c1cc(N(C)C(=O)CCS(C)(=O)=O)cnc1-c1nc2cc(C(F)(F)F)ncc2n1C [P31, N-[5-ethylsulfonyl-6-[3-methyl-6-(trifluoromethyl)imidazo[4,5-c]pyridin-2-yl]-3-pyridyl]-N-methyl-3-methylsulfonyl-propanamide]	≥ 80	≥ 80	–	–	–
CCC(=O)N(CC(F)(F)F)c1cnc(-c2nc3cc(C(F)(F)F)ncc3n2C)c(S(=O)(=O)CC)c1 [P32, N-[5-ethylsulfonyl-6-[3-methyl-6-(trifluoromethyl)imidazo[4,5-c]pyridin-2-yl]-3-pyridyl]-N-(2,2,2-trifluoroethyl)propanamide]	≥ 80	≥ 80	≥ 80	–	percent effect (mortality or growth inhibition) at 200 ppm [4]: ≥ 80%
CCSc1cc(N(C)C(C)=O)cnc1-c1nc2cc(C(F)(F)F)ncc2n1C [P33, N-[5-ethylsulfanyl-6-[3-methyl-6-(trifluoromethyl)imidazo[4,5-c]pyridin-2-yl]-3-pyridyl]-N-methyl-acetamide]	≥ 80	≥ 80	–	–	–
CCS(=O)(=O)c1cc(N2CCNC2=O)cnc1-c1nc2cc(C(F)(F)F)ncc2n1C [P36, 1-[5-ethylsulfonyl-6-[3-methyl-6-(trifluoromethyl)imidazo[4,5-c]pyridin-2-yl]-3-pyridyl]imidazolidin-2-one]	≥ 80	≥ 80	≥ 80	≥ 80	mortality at 50 ppm [1]: 100%; mortality at 12.5 ppm [2]: 90%; mortality at 1.5 ppm [3]: 100%
CCS(=O)(=O)c1cc(N2CCN(C)C2=O)cnc1-c1nc2cc(C(F)(F)F)ncc2n1C [P37, 1-[5-ethylsulfonyl-6-[3-methyl-6-(trifluoromethyl)imidazo[4,5-c]pyridin-2-yl]-3-pyridyl]-3-methyl-imidazolidin-2-one]	≥ 80	≥ 80	≥ 80	≥ 80	mortality at 50 ppm [1]: 100%; mortality at 12.5 ppm [2]: 90%; mortality at 1.5 ppm [3]: 100%
CCS(=O)(=O)c1cc(NC(=O)C(C)(C)C)cnc1-c1nc2cc(C(F)(F)F)ncc2n1C [P39, N-[5-ethylsulfonyl-6-[3-methyl-6-(trifluoromethyl)imidazo[4,5-c]pyridin-2-yl]-3-pyridyl]-2,2-dimethyl-propanamide]	≥ 80	≥ 80	≥ 80	≥ 80	–
CCS(=O)(=O)c1cc(N(C)C(=O)CCSC)cnc1-c1nc2cc(C(F)(F)F)ncc2n1C [P41, N-[5-ethylsulfonyl-6-[3-methyl-6-(trifluoromethyl)imidazo[4,5-c]pyridin-2-yl]-3-pyridyl]-N-methyl-3-methylsulfanyl-propanamide]	≥ 80	≥ 80	–	≥ 80	–
CCS(=O)(=O)c1cc(NC(=O)C(F)(F)F)cnc1-c1nc2cc(C(F)(F)F)ncc2n1C [P44, N-[5-ethylsulfonyl-6-[3-methyl-6-(trifluoromethyl)imidazo[4,5-c]pyridin-2-yl]-3-pyridyl]-2,2,2-trifluoro-acetamide]	≥ 80	≥ 80	–	≥ 80	percent effect (mortality or growth inhibition) at 200 ppm [4]: ≥ 80%
CCSc1cc(N(C(C)=O)C(C)C)cnc1-c1nc2cc(C(F)(F)F)ncc2n1C [P47, N-[5-ethylsulfanyl-6-[3-methyl-6-(trifluoromethyl)imidazo[4,5-c]pyridin-2-yl]-3-pyridyl]-N-isopropyl-acetamide]	≥ 80	–	–	–	–
CCS(=O)(=O)c1cc(NC(C)=O)cnc1-c1nc2cc(C(F)(F)F)ncc2n1C [drawing 155, reference compound]	–	–	–	–	Mortality (%) ([4]; Concentration 200 ppm, Diabrotica balteata (Example B2)): 0%
CCS(=O)(=O)c1cc(NC(=O)C2CC2)cnc1-c1nc2cc(C(F)(F)F)cnc2n1C [reference compound]	–	–	–	–	mortality at 1.5 ppm [3]: 0%
CCS(=O)(=O)c1cc(-n2ccccc2=O)cnc1-c1nc2cc(C(F)(F)F)ncc2n1C [reference compound]	–	–	–	–	mortality at 50 ppm [1]: 50%; mortality at 12.5 ppm [2]: 0%; mortality at 1.5 ppm [3]: 0%
CCS(=O)(=O)c1ccc(N2CCN(C)C2=O)nc1-c1nc2cc(C(F)(F)F)ncc2n1C [reference compound]	–	–	–	–	mortality at 50 ppm [1]: 50%; mortality at 12.5 ppm [2]: 80%; mortality at 1.5 ppm [3]: 0%
